As usually defined, the logD is the decadic logarithm of the distribution of all forms, ionised or not, between an organic phase and buffer at a given pH. Read a low logD as a more hydrophilic compound. By Vd is commonly meant the apparent volume that relates the amount in the body to the concentration in plasma or blood. Read a high Vd as extensive tissue distribution. In general, clearance refers to a measure of how efficiently the substance is removed, as volume per time. A high value points to a high capacity for elimination. The bioavailability is the share of a dose that reaches the circulation, judged against a reference dose that is usually intravenous. As a reminder, the half-life is the time in which the quantity being followed falls by half.

Consider 18 compounds from ChEMBL document CHEMBL4321847, “Discovery of 6-(2,4-Dichlorophenyl)-5-[4-[(3S)-1-(3-fluoropropyl)pyrrolidin-3-yl]oxyphenyl]-8,9-dihydro-7H-benzo[7]annulene-2-carboxylic acid (SAR439859), a Potent and Selective Estrogen Receptor Degrader (SERD) for the Treatment of Estrogen-Receptor-Positive Breast Cancer” (J Med Chem, 2020).

Series [1] is described as follows: in vitro. Conditions: human, microsomes.
Description: Metabolic stability in human liver microsomes assessed as total metabolism
The nature of series [2]: in vitro. Conditions: mouse, microsomes.
Description: Metabolic stability in mouse microsomes assessed as total metabolism
Series [3] can be described thus: in vitro. Conditions: rat, microsomes.
Description: Metabolic stability in rat microsomes assessed as total metabolism
A further series in a line: physchem. The following applies: buffer, pH 7.4.
The subject of series [4] is MCF7. The format is functional, Homo sapiens. The following applies: at 25 mg/kg.
Description: Antitumor activity against tamoxifen-sensitive human MCF7 cells xenografted in 17-beta-estradiol pellets implanted nu/nu mouse assessed as tumor regression at 25 mg/kg, po administered bid daily and monitored for biweekly
For series [5], the system named is MCF7. The following applies: Homo sapiens.
Description: Antitumor activity against tamoxifen-sensitive human MCF7 cells xenografted in 17-beta-estradiol pellets implanted nu/nu mouse assessed as reduction in tumor growth at 2.5 to 12.5 mg/kg, po administered bid daily and monitored for biweekly
Series [6] can be described thus: in vivo. Conditions: rat, iv, 3 mg/kg.
Description: Volume of distribution at steady state in rat at 3 mg/kg, iv or 10 mg/kg, po
The nature of series [7]: in vivo. The following applies: rat, iv, 3 mg/kg. This is another data set of the same source.
Description: Clearance in rat at 3 mg/kg, iv or 10 mg/kg, po
Series [8] in a line: in vivo. The following applies: rat, po, 10 mg/kg.
A short description of series [9]: in vivo. Conditions: rat.
Description: Half life in rat at 3 mg/kg, iv or 10 mg/kg, po
Series [10] is described as follows: in vivo. The following applies: mouse, iv, 3 mg/kg.
Description: Volume of distribution at steady state in mouse at 3 mg/kg, iv or 10 mg/kg, po
The nature of series [11]: in vivo. Conditions: mouse, iv, 3 mg/kg. The source holds these as a separate data set.
Description: Clearance in mouse at 3 mg/kg, iv or 10 mg/kg, po
Series [12] is described as follows: in vivo. Conditions: mouse, po, 10 mg/kg.
Series [13] in a line: in vivo. The following applies: mouse.
Description: Half life in mouse at 3 mg/kg, iv or 10 mg/kg, po
Series [14] is described as follows: in vivo. Conditions: dog, iv, 3 mg/kg.
Description: Volume of distribution at steady state in dog at 3 mg/kg, iv or 10 mg/kg, po
Series [15] in a line: in vivo. Conditions: dog, iv, 3 mg/kg. The source holds these as a separate data set.
Description: Clearance in dog at 3 mg/kg, iv or 10 mg/kg, po
Series [16] in a line: in vivo. Conditions: dog, po, 10 mg/kg.
A short description of series [17]: in vivo. Conditions: dog.
Description: Half life in dog at 3 mg/kg, iv or 10 mg/kg, po

The structures appear in SMILES notation. Calls of active or inactive are those of the source. No cut-off for these calls is given here.
Throughout, for T/C: time not given here.

Description for physchem: Lipophilicity, logD of the compound in phosphate buffer at pH 7.4

Regarding `Oc1ccc2c(c1)CCCC(c1ccc3[nH]ccc3c1)=C2c1ccc(O[C@H]2CCN(CCCF)C2)cc1`, the metabolised in “in vitro [1]” is 39%; in the series “in vitro [2]”, 61%; in the series “in vitro [3]”, 75%. This compound also showed a logD in the series “physchem” of 3.49.

As to `Oc1ccc(C2=C(c3ccc(O[C@H]4CCN(CCCF)C4)cc3)c3ccc(O)cc3CCC2)cc1`, the metabolised is 55% in “in vitro [1]”, 25% in the series “in vitro [2]” and 48% in “in vitro [3]”.

With `O=C(O)c1ccc2c(c1)CCCC(c1ccc(SC(F)(F)F)cc1)=C2c1ccc(O[C@H]2CCN(CCCF)C2)cc1`, the metabolised came out at 10% in the series “in vitro [1]”, 12% in “in vitro [2]” and 4% in the series “in vitro [3]”. The logD in “physchem” turned out to be 3.46.

On to `Oc1ccc2c(c1)CCCC(c1cccnc1)=C2c1ccc(O[C@H]2CCN(CCCF)C2)cc1`, for which the metabolised in the series “in vitro [1]” was found to be 70%; in “in vitro [2]” it was 31%; in “in vitro [3]” it was 80%. This compound also returned a logD in “physchem” of 2.11.

As for `Oc1ccc2c(c1)C(c1ccc(O[C@H]3CCN(CCCF)C3)cc1)=C(c1ccc(F)cc1Cl)CCC2`, the metabolised was 57% in the series “in vitro [1]”, 30% in “in vitro [2]” and 80% in the series “in vitro [3]”.

For `Oc1ccc2c(c1)CCCC(c1cccc(Cl)c1F)=C2c1ccc(O[C@H]2CCN(CCCF)C2)cc1`, the metabolised in “in vitro [1]” is 37%; in “in vitro [2]”, 41%; in the series “in vitro [3]”, 45%. For the same compound, in the series “physchem”, the logD is 4.32.

On to `Oc1ccc(C2=C(c3ccc(O[C@H]4CCN(CCCF)C4)cc3)c3cc(O)ccc3CCC2)cc1`, for which the metabolised in the series “in vitro [1]” was 49%; in the series “in vitro [2]”, 55%; in the series “in vitro [3]”, 58%.

As for `O=C(O)c1ccc2c(c1)CCCC(c1ccc(Cl)cc1Cl)=C2c1ccc(O[C@H]2CCN(CCCF)C2)cc1` [AMCENESTRANT], the T/C in the series with MCF7 [4] was -28%. Also, the TGI entry in the series with MCF7 [5] is “Active”. Also, the Vd in the series “in vivo [6]” is 0.83 L/kg; in “in vivo [10]”, 6.1 L/kg; in the series “in vivo [14]” it was 0.5 L/kg. For the same compound, the clearance is 3.17 mL/min/kg in “in vivo [7]”, 32 mL/min/kg in the series “in vivo [11]” and 0.5 mL/min/kg in the series “in vivo [15]”. Besides, the bioavailability stood at 76% in the series “in vivo [8]”, 62% in the series “in vivo [12]” and 54% in the series “in vivo [16]”. Further, the half-life was 4.13 h in the series “in vivo [9]”, 1.98 h in the series “in vivo [13]” and 9.8 h in the series “in vivo [17]”. Further, the figures for the metabolised in the series “in vitro [1]”, in “in vitro [2]” and in “in vitro [3]” were 12%, 13% and 4%, respectively. In “physchem”, the logD was determined as 3.25.

For the compound `O=C(O)c1ccc2c(c1)CCCC(c1ccc(Cl)cc1)=C2c1ccc(O[C@H]2CCN(CCCF)C2)cc1`, the metabolised came out at 2% in “in vitro [1]”, 15% in the series “in vitro [2]” and 1% in “in vitro [3]”. The compound also yielded a logD in the series “physchem” of 2.9.

As to `O=C(O)c1ccc2c(c1)CCCC(c1cccc(F)c1Cl)=C2c1ccc(O[C@H]2CCN(CCCF)C2)cc1`, the results for the metabolised in the series “in vitro [1]”, in “in vitro [2]” and in the series “in vitro [3]” were 28%, 0% and 2%, respectively. For the same compound, the logD in “physchem” came out at 2.59.

As to `Oc1ccc2c(c1)CCCC(c1ccc(Cl)cc1Cl)=C2c1ccc(O[C@H]2CCN(CCCF)C2)cc1`, the metabolised in “in vitro [1]” came to 30%; in the series “in vitro [2]”, 18%; in “in vitro [3]”, 17%. Also, in “physchem”, the logD came out at 5.27.

As for `Oc1ccc2c(c1)CCCC(c1ccccc1Cl)=C2c1ccc(O[C@H]2CCN(CCCF)C2)cc1`, the values for the metabolised in “in vitro [1]”, in “in vitro [2]” and in the series “in vitro [3]” were 41%, 31% and 53%, respectively. This compound also displayed a logD in “physchem” of 4.11.

For the compound `Oc1ccc2c(c1)CCCC(c1ccc3[nH]ncc3c1)=C2c1ccc(O[C@H]2CCN(CCCF)C2)cc1`, the figures for the metabolised in “in vitro [1]”, in “in vitro [2]” and in the series “in vitro [3]” were 72%, 65% and 74%, respectively. In “physchem”, this compound displayed a logD of 2.35.

For the compound `O=C(O)c1ccc2c(c1)CCCC(c1ccccc1Cl)=C2c1ccc(O[C@H]2CCN(CCCF)C2)cc1`, the values for the metabolised in “in vitro [1]”, in “in vitro [2]” and in the series “in vitro [3]” were 0%, 5% and 4%, respectively. This compound also gave a logD in the series “physchem” of 2.63.

For `Oc1ccc2c(c1)CCCC(c1ccncc1)=C2c1ccc(O[C@H]2CCN(CCCF)C2)cc1`, the metabolised in the series “in vitro [1]” was determined as 70%; in “in vitro [2]”, 39%; in “in vitro [3]”, 60%. Also, the logD in the series “physchem” stood at 2.11.

As for `O=C(O)c1ccc2c(c1)CCCC(c1ccc(OC(F)(F)F)cc1)=C2c1ccc(O[C@H]2CCN(CCCF)C2)cc1`, the metabolised was 20% in the series “in vitro [1]”, 10% in the series “in vitro [2]” and 2% in “in vitro [3]”. Besides, the logD in “physchem” stood at 3.43.

`Oc1ccc2c(c1)CCCC(c1ccccc1)=C2c1ccc(O[C@H]2CCN(CCCF)C2)cc1`: the values for the metabolised in the series “in vitro [1]”, in the series “in vitro [2]” and in the series “in vitro [3]” were 34%, 44% and 53%, respectively. In the series “physchem”, the logD worked out at 4.

Turning to `Oc1ccc2c(c1)CCCC(c1ccc(F)cc1Cl)=C2c1ccc(O[C@H]2CCN(CCCF)C2)cc1`, the metabolised in the series “in vitro [1]” is 31%; in the series “in vitro [2]” it was 20%; in “in vitro [3]” it was 44%. The same compound showed a logD in “physchem” of 4.59.
